One test has as its system BiP mRNA. Nature of the test: SA spraying of tobacco plants, Northern blot of BiP mRNA. It counts as in vivo, Nicotiana tabacum. How it is done: It has been shown that SA is involved in the induction of PR genes (reviewed by Malamy and Klessig, 1992) and that this signal molecule also induces the expression of ER chaperones (Denecke et al, 1995). We wanted to investigate whether ER chaperone induction is a consequence of the high synthesis rates of PR genes and used BiP as a model system. Tobacco plants were sprayed with SA (5 mM) and the exact timing of the SA-mediated induction of PR-gene PRI was compared to that of BiP. PR1 was chosen as a representative marker for SA-mediated induction of PR genes as its response to SA is faster and more pronounced than that of acidic chitinase, basic chitinase and basic β-1.3 glucanase (Vidal et al, 1997). […] In contrast SA-induced transcription of PR1 starts only after 6-8 hours and continues to accumulate upto 16 hours after treatment. At this time-point, BiP mRNA levels start to decrease again. We have shown previously that PR1 continuous to accumulate until 48 hours after SA treatment using the same experimental system (Vidal et al, 1997). […] BiP protein levels were also shown to increase (FIG. 7B), with a significant increase noticeable after 4-6 hours of induction.
To investigate further similarities and differences in the SA-mediated induction of BiP and PR genes, we tested if the presence of light is required for the induction. The rationale for this experiment was derived from the observation that SA inhibits catalase, resulting in an increase of active oxygen species in the plant, which would then induce PR genes such as PR1 (Chen et al, 1993). Despite the fact that the inhibition of catalase activity alone is not the key route by which PR1 is induced during SA-treatment (Chamnongpol et al, 1996), a cooperative interaction of SA and H2O2 might lead to the strong induction of PR1 (Leon et al, 1995, Chen et al, 1995). […] Tobacco plants were thus sprayed with SA (5 mM) and incubated in the presence and absence of light for 6 and 16 hours. […] The data also confirm that BiP mRNA levels increase transiently and a significant decrease in mRNA levels is detectable after 16 hours of treatment (see also FIG. 7).
We have shown that the SA-induced expression of PR1 is inhibited in a concentration dependent fashion by the presence of Erwinia carotovora culture filtrate containing cell wall-degrading enzymes (Vidal et al, 1997). […] Total RNA was extracted and the expression of chaperones was determined in relation to PR1.
In example 6 we have shown that the UPR-induced BiP gene expression is additive to the cell wall-degrading enzyme (CDE) response. […] After floating of the leaves for 2.5 h on this medium, RNA was extracted and BiP gene expression was analysed by Northern blotting. […]

A further test concerns PR1 mRNA. The settings on record: same experimental system, Vidal et al, 1997; cited from earlier work.
Another test has as its system β-1,3-glucanase mRNA. Nature of the test: Tunicamycin treatment of tobacco protoplasts, Northern blot of β-1,3-glucanase. The settings on record: tunicamycin 20 μg/mL. The test is classed as cell-based, Nicotiana tabacum. How it is done:
To compare the CDE- and UPR-mediated induction of BiP, we wanted to test if both stimuli are additive. […] This is not surprising as protoplasts are prepared with CDEs. These protoplasts were then treated with tunicanycin, to superimpose the UPR onto the CDE response. […] The additional ER stress could trap BiP in malfolded protein complexes, thus making it unavailable to promote PR protein synthesis on the rough ER.
During prolonged incubation times, transcript levels encoding secretory proteins recover to almost normal (initial) values again. Identical results were obtained with other transcripts encoding the secretory proteins acidic chitinase and basic chitinase present in tobacco protoplasts, showing that the effect is not restricted to β-1,3-glucanase (data not shown).
Protoplasts RNAs were extracted as described by Jones et al., (1985). Leaves were ground in frozen liquid nitrogen and transferred to NTES buffer (0.1 M NaCl, 10 mM Tris pH 7.5, 1 mM EDTA, 1% SDS). Protoplasts samples were frozen in liquid nitrogen and thawed in NTES buffer. RNA was extracted after adding an equal volume of phenol/chloroform. Ethanol precipitation was carried out after incubation at −20° C. for 16 hours. The pellet was resuspended and RNA was selectively precipitated with LiCl (2M LiCl) for 2 hours on ice. The pellet was washed with 70% ethanol and resuspended in diethyl pyrocarbonate-treated water. […]

In the case of `O=C(O)c1ccccc1O` [SA, Salicylic Acid], the “accumulation of BiP mRNA transcripts during SA-treatment in the absence of light” value in the test with BiP mRNA (SA 5 mM, 6 and 16 hours, dark vs light) is “hardly any reduction”. In the test on BiP mRNA (sprayed with SA 5 mM), the “time at which BiP mRNA levels reach a plateau” value worked out at 4 h and the “time of treatment after which BiP mRNA levels are induced” value was 2 h. Moreover, the “time until which PR1 continues to accumulate (shown previously)” value with PR1 mRNA was not above 48 h.
As for tunicamycin, in the test on BiP mRNA (5 mM SA 12 h, then tunicamycin 20 μg/mL 2.5 h), the “BiP transcription in SA-treated leaves floated on MS medium with tunicamycin” value is reported as “further induction”. Further, the “transcript level of β-1,3-glucanase during UPR-induced BiP transcription (time course)” value in the test with β-1,3-glucanase mRNA (protoplasts) is recorded as “rapidly decreases”. In the test with β-1,3-glucanase mRNA (2.5 hrs), the “β1,3-glucanase expression in protoplasts” value was “inhibited”.
